Measurements from the supplement of paper PMC11208160.

assay: recombinant UMI read abundance after kanamycin selection (control-corrected) (log10(CPM+1)); higher = more efficient recombination; extreme values may be limits of the assay; sequences stand for … in AGTGCAGAGAAAATCGGCCAGTTTTCTCTGCCTGCAGTCCGCATGCCGTGGGACCCCTTGGGTTCTAACCTGTTGCCTAGATTTATGCAGCGGACTGCCTTTCTCCCAAAGTGATAAACCGG…AGGTTGGTTTCACT; site = the 11-nt donor
Method in brief: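 Sequencing read counts were converted to CPM, averaged over two replicates and scaled by control-derived factors. Results are given as log10(CPM+1). The reads covered the donor–target junction of recombinant UMIs from a pooled Escherichia coli screen of donor and donor-binding-loop pairs for the IS621 bridge recombinase.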
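Further: IS621 bridge recombinase in Escherichia coli cells against a fixed T5 target plasmid.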

Sequence | recombinant UMI read abundance (log10)
TCGTCGCCATGGACCGGTTTTCCCGGTAATCCGTATTTGCA (site TCGTCGCCTTG) | 0.00504
AGCCTTTCATGGACCGGTTTTCCCGGTAATCCGTATTTGAC (site AGCCCTTCTGT) | 0
GCAAGAGCATGGACCGGTTTTCCCGGTAATCCGTATTTGGC (site GCAAGAGCTGC) | 1.82
AGGACTGCATGGACCGGTTTTCCCGGTAATCCGTATTTGAC (site AGGACTTCTGT) | 0
GGCAATCCATGGACCGGTTTTCCCGGTAATCCGTATTTGAA (site GGCGATCCTTT) | 0
CGATCGACATGGACCGGTTTTCCCGGTAATCCGTATTTGGT (site CGATCGACTAT) | 1.46
GTACTCGCATGGACCGGTTTTCCCGGTAATCCGTATTTGCG (site GTAATCGCTCG) | 0.0162
CCGTTTACATGGACCGGTTTTCCCGGTAATCCGTATTTGCT (site CCGTTCACTAG) | 0.00422
CAAGTAACATGGACCGGTTTTCCCGGTAATCCGTATTTGGG (site CAAGTCACTCC) | 0.0125
CCCATATCATGGACCGGTTTTCCCGGTAATCCGTATTTGTC (site CCCATATCTGT) | 0
GATTATCCATGGACCGGTTTTCCCGGTAATCCGTATTTGCT (site GATTACCCTAG) | 0
AGCCTAACATGGACCGGTTTTCCCGGTAATCCGTATTTGTT (site AGCCTAACTAA) | 0.00538
TGCTAGGCATGGACCGGTTTTCCCGGTAATCCGTATTTGTT (site TGCTAGGCTAA) | 0.282
GTCATCGCATGGACCGGTTTTCCCGGTAATCCGTATTTGCC (site GTCATCGCTGG) | 2.35
CTCTAGACATGGACCGGTTTTCCCGGTAATCCGTATTTGCT (site CTCTATACTAG) | 0
CCCATATCATGGACCGGTTTTCCCGGTAATCCGTATTTGTC (site CCCATATCTCA) | 0
CTACTAACATGGACCGGTTTTCCCGGTAATCCGTATTTGGA (site CTACAAACTTC) | 0.00657
CCCTTCTCATGGACCGGTTTTCCCGGTAATCCGTATTTGGG (site CACTTCTCTCC) | 0.00776
TGTTGTGCATGGACCGGTTTTCCCGGTAATCCGTATTTGCG (site TGTTGTGCTCG) | 0.684
CCCTAGCCATGGACCGGTTTTCCCGGTAATCCGTATTTGCC (site CTCTAGCCTGG) | 0
AATAAACCATGGACCGGTTTTCCCGGTAATCCGTATTTGTG (site AATAAACCTCA) | 0.00291
CGCCACCCATGGACCGGTTTTCCCGGTAATCCGTATTTGTT (site GGCCACCCTAA) | 0.0241
TGTTCCCCATGGACCGGTTTTCCCGGTAATCCGTATTTGTT (site TGTTCCCCTTA) | 0.0133
GATGTGTCATGGACCGGTTTTCCCGGTAATCCGTATTTGAC (site AATGTGTCTGT) | 1.67
ACAGTATCATGGACCGGTTTTCCCGGTAATCCGTATTTGCA (site ACCGTAACTTG) | 0.0063

Sequence | recombinant UMI read abundance (log10)
GGTTCGTCATGGACCGGTTTTCCCGGTAATCCGTATTTGTT (site GGTTCGTCTAA) | 0.351
GACACGCCATGGACCGGTTTTCCCGGTAATCCGTATTTGTG (site GACACGCCTCA) | 0.149
AGATAATCATGGACCGGTTTTCCCGGTAATCCGTATTTGCT (site AGATAATCTAG) | 3.3
TTCTCCACATGGACCGGTTTTCCCGGTAATCCGTATTTGGA (site TTCTCCACTTC) | 0.00322
TTCCAGACATGGACCGGTTTTCCCGGTAATCCGTATTTGTA (site TTCCAGACTTA) | 0.13
CGGAATCCATGGACCGGTTTTCCCGGTAATCCGTATTTGCT (site CGGAATCCTAC) | 0
GATGCCTCATGGACCGGTTTTCCCGGTAATCCGTATTTGTT (site GATGCCTCTAA) | 0.895
AGGTTCCCATGGACCGGTTTTCCCGGTAATCCGTATTTGTG (site AGGTTCCCTGA) | 0
TCGGGTGCATGGACCGGTTTTCCCGGTAATCCGTATTTGGA (site TCGGGTGCTTC) | 0.157
AGAGATTCATGGACCGGTTTTCCCGGTAATCCGTATTTGGC (site AGAGATTCTGC) | 2.95
TACGGCCCATGGACCGGTTTTCCCGGTAATCCGTATTTGCG (site TACGGCCCTCG) | 0.024
ACAGTATCATGGACCGGTTTTCCCGGTAATCCGTATTTGCA (site ACCGTATCTTG) | 1.82
AGGTGCCCATGGACCGGTTTTCCCGGTAATCCGTATTTGTG (site AGGTTCCCTCA) | 0.755
AAGGTGTCATGGACCGGTTTTCCCGGTAATCCGTATTTGAC (site AATGTGTCTGT) | 0
ACTCTTTCATGGACCGGTTTTCCCGGTAATCCGTATTTGTT (site ACTCTTTCTAA) | 0.0432
CCGTTTACATGGACCGGTTTTCCCGGTAATCCGTATTTGCT (site ACGTTTACTAG) | 0
CCGTGTACATGGACCGGTTTTCCCGGTAATCCGTATTTGCT (site CCGTGTACTAG) | 0.439
GAGGAGACATGGACCGGTTTTCCCGGTAATCCGTATTTGCC (site GAGGAGACTGG) | 1.22
AATGTAACATGGACCGGTTTTCCCGGTAATCCGTATTTGCT (site AGTGTAACTAG) | 1.51
AGAGGCACATGGACCGGTTTTCCCGGTAATCCGTATTTGAC (site AGAGGCACTGT) | 2.32
GATTATGCATGGACCGGTTTTCCCGGTAATCCGTATTTGCT (site GATTATCCTAG) | 0.309
CGGTATCCATGGACCGGTTTTCCCGGTAATCCGTATTTGCC (site CGGTATCCTGG) | 0
CTACTAACATGGACCGGTTTTCCCGGTAATCCGTATTTGGA (site CTGCTAACTTC) | 0.331
GCGAAGTCATGGACCGGTTTTCCCGGTAATCCGTATTTGGG (site GCGAAGCCTCC) | 0.0096
CAAGTCACATGGACCGGTTTTCCCGGTAATCCGTATTTGGG (site CAAGACACTCC) | 0.0192

Sequence | recombinant UMI read abundance (log10)
ACAGTCTCATGGACCGGTTTTCCCGGTAATCCGTATTTGCT (site ACAGTATCTTG) | 0
ACAGTGTCATGGACCGGTTTTCCCGGTAATCCGTATTTGCA (site ACAGTTTCTTG) | 0.818
ACTGTGTCATGGACCGGTTTTCCCGGTAATCCGTATTTGAC (site AATGTGTCTGT) | 0
CGATCGACATGGACCGGTTTTCCCGGTAATCCGTATTTGGT (site CGATCGACTAC) | 0.733
CCAGTTTCATGGACCGGTTTTCCCGGTAATCCGTATTTGAC (site CTAGTATCTGT) | 0
CGTTTTGCATGGACCGGTTTTCCCGGTAATCCGTATTTGCT (site CGTTTAGCTAG) | 0
CGCAGAACATGGACCGGTTTTCCCGGTAATCCGTATTTGCA (site CGCAGAACTTG) | 1.37
CGGCAACCATGGACCGGTTTTCCCGGTAATCCGTATTTGAT (site CGGGAACCTAT) | 0
ACTAATACATGGACCGGTTTTCCCGGTAATCCGTATTTGGC (site ACTAATACTGC) | 0.399
ACAGTATCATGGACCGGTTTTCCCGGTAATCCGTATTTGCA (site AGTGTATCTTG) | 1.45
TAAGACCCATGGACCGGTTTTCCCGGTAATCCGTATTTGTT (site TAAGACCCTAA) | 0.806
TAATATCCATGGACCGGTTTTCCCGGTAATCCGTATTTGTC (site TAATATCCTGA) | 0.252
AGCCTAGCATGGACCGGTTTTCCCGGTAATCCGTATTTGTT (site AGGCTAGCTAA) | 0.00253
GAGGACGCATGGACCGGTTTTCCCGGTAATCCGTATTTGAG (site GAGGACGCTCT) | 1.9
CCCATATCATGGACCGGTTTTCCCGGTAATCCGTATTTGAT (site CCCATATCTAT) | 0
AAAAAGGCATGGACCGGTTTTCCCGGTAATCCGTATTTGCT (site ACAAAGGCTAG) | 1.19
CCCTTCTCATGGACCGGTTTTCCCGGTAATCCGTATTTGGG (site TCCTTCTCTCC) | 0.0111
CGCCACCCATGGACCGGTTTTCCCGGTAATCCGTATTTGTT (site CGCCACCCTAA) | 0.0407
CGGGGTGCATGGACCGGTTTTCCCGGTAATCCGTATTTGGT (site CGGGGTGCTAC) | 1.25
CCCTAGCCATGGACCGGTTTTCCCGGTAATCCGTATTTGCC (site TCCTAGCCTGG) | 0
CTCCGACCATGGACCGGTTTTCCCGGTAATCCGTATTTGAC (site CTCCGACCTGT) | 0
TCCATGCCATGGACCGGTTTTCCCGGTAATCCGTATTTGAT (site TCCATGCCTAT) | 0
CTGCAGGCATGGACCGGTTTTCCCGGTAATCCGTATTTGAG (site CTGCAGGCTCT) | 1.5
ATAGTATCATGGACCGGTTTTCCCGGTAATCCGTATTTGTA (site ATAGTATCTTA) | 3.14
ACAGTATCATGGACCGGTTTTCCCGGTAATCCGTATTTGCA (site GCAGTAACTTG) | 0
